Values of other authors, collected in patent US6403571B2, “Combination therapy for reducing the risks associated with cardiovascular disease” (Merck & Co., Inc., priority 1996, dated 2002).
Where a name gives a salt, the structure may show the parent alone. Blank lines part the entries; values can stand above or below the compound they belong to. Where a SMILES comes first, the peptide text is derived from it. Bridges are numbered along the chain shown (N, C = ends). [ ]: non-standard residue; d: D form. hArg = N=C(N)NCCCC[C@H](N)C(=O)O; Mpa = O=C(O)CCS

Tests used:
[1] = biological target: T1, GP IIb/IIIa (Homo sapiens, UniProt P05106+P08514)
[2] = biological target: T1, GP IIb/IIIa; details: for selectivity for GP IIb/IIIa: administered intravenously
[3] = biological target: αvβ3 (Homo sapiens, UniProt P05106+P06756)
Chain of αvβ3 (P06756 31-889 limits assumed): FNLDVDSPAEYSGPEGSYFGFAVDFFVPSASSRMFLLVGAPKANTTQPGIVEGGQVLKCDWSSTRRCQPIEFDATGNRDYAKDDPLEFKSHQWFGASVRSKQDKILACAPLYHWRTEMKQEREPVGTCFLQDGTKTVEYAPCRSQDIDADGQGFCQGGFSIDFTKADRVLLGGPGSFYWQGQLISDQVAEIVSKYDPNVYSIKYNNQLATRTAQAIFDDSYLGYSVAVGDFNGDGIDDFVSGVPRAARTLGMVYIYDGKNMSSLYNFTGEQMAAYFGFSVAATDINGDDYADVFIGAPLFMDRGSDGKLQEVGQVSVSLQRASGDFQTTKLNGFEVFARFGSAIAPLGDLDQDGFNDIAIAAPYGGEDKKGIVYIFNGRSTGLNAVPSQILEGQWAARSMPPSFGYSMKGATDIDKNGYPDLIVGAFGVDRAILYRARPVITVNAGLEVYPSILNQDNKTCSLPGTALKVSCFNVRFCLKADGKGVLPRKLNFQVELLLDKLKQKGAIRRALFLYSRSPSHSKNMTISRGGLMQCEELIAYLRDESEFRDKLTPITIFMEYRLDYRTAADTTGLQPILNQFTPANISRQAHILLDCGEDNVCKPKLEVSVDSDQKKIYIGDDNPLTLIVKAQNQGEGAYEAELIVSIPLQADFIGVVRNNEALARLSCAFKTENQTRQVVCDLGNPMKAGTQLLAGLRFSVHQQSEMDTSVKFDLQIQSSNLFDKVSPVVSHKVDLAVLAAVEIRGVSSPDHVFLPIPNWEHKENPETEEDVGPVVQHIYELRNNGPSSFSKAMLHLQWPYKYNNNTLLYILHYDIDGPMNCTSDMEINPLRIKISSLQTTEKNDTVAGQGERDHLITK
Chain of αvβ3 (P06756 891-1048 partner limits assumed): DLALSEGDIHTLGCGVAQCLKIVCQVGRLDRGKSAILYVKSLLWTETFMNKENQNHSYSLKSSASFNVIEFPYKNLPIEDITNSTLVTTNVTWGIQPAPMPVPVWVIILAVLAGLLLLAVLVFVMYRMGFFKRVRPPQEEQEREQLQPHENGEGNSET
Chain of αvβ3 (P05106 27-788): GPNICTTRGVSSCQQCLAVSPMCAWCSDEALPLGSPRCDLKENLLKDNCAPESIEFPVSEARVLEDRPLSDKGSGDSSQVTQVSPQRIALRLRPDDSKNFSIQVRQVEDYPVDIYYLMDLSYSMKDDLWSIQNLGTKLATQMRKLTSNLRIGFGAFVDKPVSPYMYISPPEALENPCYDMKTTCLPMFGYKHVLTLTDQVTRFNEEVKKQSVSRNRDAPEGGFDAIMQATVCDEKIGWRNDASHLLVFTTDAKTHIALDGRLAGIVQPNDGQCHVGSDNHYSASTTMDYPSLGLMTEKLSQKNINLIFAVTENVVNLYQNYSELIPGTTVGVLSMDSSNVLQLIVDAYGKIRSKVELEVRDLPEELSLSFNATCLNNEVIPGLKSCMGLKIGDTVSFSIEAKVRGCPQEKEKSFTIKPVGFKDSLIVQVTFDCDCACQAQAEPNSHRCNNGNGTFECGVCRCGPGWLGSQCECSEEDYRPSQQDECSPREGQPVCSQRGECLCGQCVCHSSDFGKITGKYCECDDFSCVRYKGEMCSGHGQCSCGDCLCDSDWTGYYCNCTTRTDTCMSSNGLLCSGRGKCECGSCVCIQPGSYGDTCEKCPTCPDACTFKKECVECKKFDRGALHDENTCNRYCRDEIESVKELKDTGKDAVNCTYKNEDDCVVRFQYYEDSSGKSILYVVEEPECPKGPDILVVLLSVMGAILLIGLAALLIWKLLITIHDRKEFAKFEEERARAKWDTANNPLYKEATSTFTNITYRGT

[4] = prodrug, requires biotransformation in vivo to its active form

Compound: 7E3: monoclonal antibody which blocks the GP IIb/IIIa receptor and the αvβ3 receptor [Compound 7E3]
- need for transfusion ([1]; 7E3 added to heparin and aspirin, increasing from 3%): 6%
- incidence of patients with decreased hematocrit ([1]; 7E3 added to heparin and aspirin, increasing from 7%): 15%
- combined endpoints of death, non-fatal myocardial infarction (MI) and need for urgent revascularization ([1]; 7E3 added to standard regime of heparin and aspirin, decrease from 12.8% without blockade): 8.3%

Compound: N=C(N)NCCCC[C@@H]1NC(=O)CCSSC[C@@H](C(N)=O)NC(=O)[C@@H]2CCCN2C(=O)[C@H](Cc2c[nH]c3ccccc23)NC(=O)[C@H](CC(=O)O)NC(=O)CNC1=O [Integrelin] ([Mpa][hArg]GDWPC-NH2; disulfide 1-7)
- effect on ligand binding to GP IIb/IIIa [2]: inhibits ligand binding
- effect on ligand binding to αvβ3 [3]: very little effect

- selectivity for GP IIb/IIIa [2]: selective
Compound: CCCCS(=O)(=O)N[C@@H](Cc1ccc(OCCCCC2CCNCC2)cc1)C(=O)O [MK-383, 2-S-(n-Butylsulfonylamino)-3[4-piperidin-4-yl)butyloxyphenyl]propionic acid hydrochloride]

- selectivity for GP IIb/IIIa [2]: selective
Compound: N=C(N)c1ccc(C(=O)N[C@@H](Cc2ccc(O)cc2)C(=O)N2CCC(OCC(=O)O)CC2)cc1 [Ro 44-9883]

- oral bioavailability [4]: high oral bioavailability
Compound: C#C[C@H](CC(=O)OCC)NC(=O)CCC(=O)Nc1ccc(C(=N)N)cc1 [SC54684, ethyl 3-[[4-[[4-(aminoiminomethyl)phenyl]amino]-1,4-dioxobutyl]amino]-4-pentynoate]
